Literature values as cited in patent US20160186266A1, “MOLECULAR PROFILING FOR PERSONALIZED MEDICINE” (CARIS LIFE SCIENCES, INC., priority 2009, published 2016).

What was measured:
[1] = test system: platelet-derived growth factor receptor (PDGFR)
c-Kit = c-Kit (Homo sapiens, UniProt P10721)
Sequence of c-Kit (P10721 26-976): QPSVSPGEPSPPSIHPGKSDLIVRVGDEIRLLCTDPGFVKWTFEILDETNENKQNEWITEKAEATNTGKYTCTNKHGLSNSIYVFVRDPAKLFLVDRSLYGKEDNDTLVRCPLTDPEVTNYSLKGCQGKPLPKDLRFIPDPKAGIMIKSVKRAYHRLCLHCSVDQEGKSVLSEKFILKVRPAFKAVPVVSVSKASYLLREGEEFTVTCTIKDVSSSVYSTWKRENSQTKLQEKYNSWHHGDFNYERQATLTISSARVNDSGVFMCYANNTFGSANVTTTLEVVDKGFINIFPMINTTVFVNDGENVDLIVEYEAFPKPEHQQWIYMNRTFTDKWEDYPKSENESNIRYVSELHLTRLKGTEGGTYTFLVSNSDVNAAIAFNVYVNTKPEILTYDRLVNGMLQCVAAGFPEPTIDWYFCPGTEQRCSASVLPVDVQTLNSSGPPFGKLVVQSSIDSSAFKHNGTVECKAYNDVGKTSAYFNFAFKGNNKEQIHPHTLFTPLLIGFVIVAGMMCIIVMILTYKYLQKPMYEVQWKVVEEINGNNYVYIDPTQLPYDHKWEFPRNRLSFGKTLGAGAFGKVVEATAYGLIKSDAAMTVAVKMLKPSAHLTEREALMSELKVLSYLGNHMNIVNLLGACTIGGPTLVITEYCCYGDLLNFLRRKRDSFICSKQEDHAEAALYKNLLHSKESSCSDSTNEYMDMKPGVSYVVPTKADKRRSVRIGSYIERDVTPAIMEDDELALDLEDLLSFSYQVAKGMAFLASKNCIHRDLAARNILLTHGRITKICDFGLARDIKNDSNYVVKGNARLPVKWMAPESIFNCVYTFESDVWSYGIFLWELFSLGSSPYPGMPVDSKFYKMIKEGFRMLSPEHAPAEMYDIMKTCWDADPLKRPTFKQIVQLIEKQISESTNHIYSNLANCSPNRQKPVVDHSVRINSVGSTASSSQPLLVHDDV

effect on kinase activity (c-Kit): block the activity
SMILES: Cc1ccc(NC(=O)c2ccc(CN3CCN(C)CC3)cc2)cc1Nc1nccc(-c2cccnc2)n1 [Imatinib]
effect on kinase activity [1]: block the activity
